Molecular target: Integrase (Human immunodeficiency virus 1, UniProt Q7ZJM1)
Assay: ChEBML_90573
From the text: Inhibitory activity against HIV-1 integrase

Integrase, sequence (Q7ZJM1 whole entry): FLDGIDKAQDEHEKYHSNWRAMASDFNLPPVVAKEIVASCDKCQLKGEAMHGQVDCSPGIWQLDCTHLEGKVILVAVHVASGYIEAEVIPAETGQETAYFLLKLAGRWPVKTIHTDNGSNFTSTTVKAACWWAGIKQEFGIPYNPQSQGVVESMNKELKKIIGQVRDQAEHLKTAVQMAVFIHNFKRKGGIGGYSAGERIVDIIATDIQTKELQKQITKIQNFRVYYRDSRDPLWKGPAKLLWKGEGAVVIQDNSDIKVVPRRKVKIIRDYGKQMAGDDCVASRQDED

IC50: 3 µM
SMILES: CCCCC(C)/C=C(\C)C(=O)O[C@@H]1CC[C@H](C(=O)O)[C@@]2(C)CC(=C(C)C=O)C(=O)C=C12 (stereo partly drawn) [(1S,4R,7S,8aR)-4-((E)-2,4-Dimethyl-oct-2-enoyloxy)-7-(1-formyl-vinyl)-8a-methyl-6-oxo-1,2,3,4,6,7,8,8a-octahydro-naphthalene-1-carboxylic acid]
